Results as given in PubChem BioAssay AID330 (DTP/NCI, 2004).
Several values for one entry are separate records, joined by “and”; a condition that tells them apart may be missing. Equal entries are not always repeated. Inconclusive results and toxic doses are left out. Square brackets hold non-standard residues; d marks the D form. Peptide text beside a SMILES is read from it. ξ: configuration not given here. ξNva = CCCC(N)C(=O)O

System: P388 leukemia ip, CD2F1 mice, survival T/C
Experiment: NCI In Vivo Anticancer Drug Screen. Data for tumor model P388 Leukemia (intraperitoneal) in CD2F1 (CDF1) mice
Details: endpoint: median survival time, higher = longer survival
Method in brief: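 Mice carrying the transplanted tumor received test compound or vehicle. Survival was recorded in each group, and the value is the treated-group measurement divided by that of the vehicle-treated control group.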

[1] = dose: 2.5 mg/kg/injection, schedule: Q01DX009 (ip), vehicle: water
[2] = dose: 5.0 mg/kg/injection, schedule: Q01DX009 (ip), vehicle: water
[3] = dose: 10.0 mg/kg/injection, schedule: Q01DX009 (ip), vehicle: water
[4] = dose: 50.0 mg/kg/injection, schedule: Q01DX009 (ip), vehicle: saline with Tween-80
[5] = dose: 100.0 mg/kg/injection, schedule: Q01DX009 (ip), vehicle: saline with Tween-80
[6] = dose: 50.0 mg/kg/injection, schedule: Q01DX009 (ip), vehicle: Klucel (hydroxypropylcellulose) (HPC)
[7] = dose: 100.0 mg/kg/injection, schedule: Q01DX009 (ip), vehicle: Klucel (hydroxypropylcellulose) (HPC)
[8] = dose: 200.0 mg/kg/injection, schedule: Q01DX009 (ip), vehicle: Klucel (hydroxypropylcellulose) (HPC)
[9] = dose: 50.0 mg/kg/injection, schedule: Q01DX005 (ip), vehicle: Klucel (hydroxypropylcellulose) (HPC)
[10] = dose: 100.0 mg/kg/injection, schedule: Q01DX005 (ip), vehicle: Klucel (hydroxypropylcellulose) (HPC)

CCN(CC)CCCC(C)NC(=O)Cc1cc(O)c2c(c1O)C(=O)c1ccccc1C2=O (stereo not given)
T/C [1]: 108 % of control and 112 % of control | T/C [2]: 102 % of control and 110 % of control | T/C [3]: 99 % of control and 103 % of control and 97 % of control | T/C (dose: 20.0 mg/kg/injection, schedule: Q01DX009 (ip), vehicle: water): 99 % of control and 110 % of control and 93 % of control | T/C (dose: 40.0 mg/kg/injection, schedule: Q01DX009 (ip), vehicle: water): 102 % of control and 113 % of control | T/C (dose: 80.0 mg/kg/injection, schedule: Q01DX009 (ip), vehicle: water): 108 % of control

CC(=O)N1CN(C)N(C)C1
T/C (dose: 60.0 mg/kg/injection, schedule: Q01DX005 (ip), vehicle: Klucel (hydroxypropylcellulose) (HPC)): 98 % of control | T/C (dose: 120.0 mg/kg/injection, schedule: Q01DX005 (ip), vehicle: Klucel (hydroxypropylcellulose) (HPC)): 91 % of control | T/C (dose: 240.0 mg/kg/injection, schedule: Q01DX005 (ip), vehicle: Klucel (hydroxypropylcellulose) (HPC)): 100 % of control

CCCC(NC(=O)CNC(=O)CN)C(=O)O (stereo not drawn) (H-Gly-Gly-[ξNva]-OH)
T/C (dose: 60.0 mg/kg/injection, schedule: Q01DX005 (ip), vehicle: saline): 98 % of control | T/C (dose: 120.0 mg/kg/injection, schedule: Q01DX005 (ip), vehicle: saline): 106 % of control | T/C (dose: 240.0 mg/kg/injection, schedule: Q01DX005 (ip), vehicle: saline): 106 % of control

CCc1cc(CC)c(-c2ccco2)c(COC(=O)NC)c1
T/C [4]: 101 % of control | T/C [5]: 101 % of control | T/C (dose: 200.0 mg/kg/injection, schedule: Q01DX009 (ip), vehicle: saline with Tween-80): 106 % of control

C1CCCCCC2OC2CCCC1 (stereo not given)
T/C (dose: 50.0 mg/kg/injection, schedule: Q04DX003 (ip), vehicle: Klucel (hydroxypropylcellulose) (HPC)): 107 % of control | T/C (dose: 100.0 mg/kg/injection, schedule: Q04DX003 (ip), vehicle: Klucel (hydroxypropylcellulose) (HPC)): 112 % of control | T/C (dose: 200.0 mg/kg/injection, schedule: Q04DX003 (ip), vehicle: Klucel (hydroxypropylcellulose) (HPC)): 107 % of control

COc1cc2cnc(-c3ccccc3)cc2cc1OC
T/C (dose: 100.0 mg/kg/injection, schedule: Q04DX003 (ip), vehicle: suspension in saline): 101 % of control | T/C (dose: 200.0 mg/kg/injection, schedule: Q04DX003 (ip), vehicle: suspension in saline): 93 % of control | T/C (dose: 400.0 mg/kg/injection, schedule: Q04DX003 (ip), vehicle: suspension in saline): 93 % of control

COc1ccc(N=Cc2ccccc2P(c2ccccc2)c2ccccc2)cc1
T/C [6]: 101 % of control | T/C [7]: 100 % of control | T/C [8]: 100 % of control

CCCN(CCC)C(=O)C(c1ccccc1)C1(O)CCCCC1 (stereo not given)
T/C [9]: 100 % of control | T/C [10]: 100 % of control | T/C (dose: 200.0 mg/kg/injection, schedule: Q01DX005 (ip), vehicle: Klucel (hydroxypropylcellulose) (HPC)): 97 % of control

CC(C)(c1ccccc1)c1ccc(O)cc1
T/C (dose: 25.0 mg/kg/injection, schedule: Q01DX009 (ip), vehicle: saline with Tween-80): 100 % of control | T/C [4]: 100 % of control | T/C [5]: 100 % of control | T/C (dose: 100.0 mg/kg/injection, schedule: Q04DX003 (ip), vehicle: saline with Tween-80): 90 % of control

CC(C#N)(C#N)N=Nc1ccc(Br)cc1
T/C (dose: 50.0 mg/kg/injection, schedule: Q01DX005 (ip), vehicle: saline with Tween-80): 106 % of control | T/C (dose: 100.0 mg/kg/injection, schedule: Q01DX005 (ip), vehicle: saline with Tween-80): 105 % of control

c1ccc2c(Cc3csc4ccccc34)csc2c1
T/C (dose: 50.0 mg/kg/injection, schedule: Q01DX005 (ip), vehicle: distilled water + Tween-80 + alcohol): 106 % of control | T/C (dose: 100.0 mg/kg/injection, schedule: Q01DX005 (ip), vehicle: distilled water + Tween-80 + alcohol): 115 % of control | T/C (dose: 200.0 mg/kg/injection, schedule: Q01DX005 (ip), vehicle: distilled water + Tween-80 + alcohol): 115 % of control

N=C(N)CCCCCCCCC(=N)N
T/C (dose: 0.78 mg/kg/injection, schedule: Q01DX009 (ip), vehicle: saline): 98 % of control and 111 % of control and 118 % of control | T/C (dose: 1.5 mg/kg/injection, schedule: Q01DX009 (ip), vehicle: saline): 116 % of control | T/C (dose: 1.56 mg/kg/injection, schedule: Q01DX009 (ip), vehicle: saline): 112 % of control and 114 % of control | T/C (dose: 6.25 mg/kg/injection, schedule: Q01DX009 (ip), vehicle: saline): 123 % of control | T/C (dose: 12.5 mg/kg/injection, schedule: Q01DX009 (ip), vehicle: saline): 107 % of control and 116 % of control and 119 % of control

C(=N\Nc1c2c(nc3ccccc13)CCCC2)/c1ccc2c(c1)OCO2
T/C (dose: 3.12 mg/kg/injection, schedule: Q01DX005 (ip), vehicle: Klucel (hydroxypropylcellulose) (HPC)): 109 % of control | T/C (dose: 6.25 mg/kg/injection, schedule: Q01DX005 (ip), vehicle: Klucel (hydroxypropylcellulose) (HPC)): 95 % of control | T/C (dose: 12.5 mg/kg/injection, schedule: Q01DX005 (ip), vehicle: Klucel (hydroxypropylcellulose) (HPC)): 90 % of control and 95 % of control

NC1=C(O)C(=O)C(c2ccccc2O)O1 (stereo not given)
T/C (dose: 30.0 mg/kg/injection, schedule: Q01DX005 (ip), vehicle: suspension in saline): 104 % of control | T/C (dose: 60.0 mg/kg/injection, schedule: Q01DX005 (ip), vehicle: suspension in saline): 103 % of control | T/C (dose: 120.0 mg/kg/injection, schedule: Q01DX005 (ip), vehicle: suspension in saline): 89 % of control and 97 % of control | T/C (dose: 240.0 mg/kg/injection, schedule: Q01DX005 (ip), vehicle: suspension in saline): 88 % of control

COc1cc(CC2COC(O)C2(O)Cc2ccc(O)c(OC)c2)ccc1O (stereo not given)
T/C (dose: 8.25 mg/kg/injection, schedule: Q01DX005 (ip), vehicle: Klucel (hydroxypropylcellulose) (HPC)): 101 % of control | T/C (dose: 16.5 mg/kg/injection, schedule: Q01DX005 (ip), vehicle: Klucel (hydroxypropylcellulose) (HPC)): 101 % of control | T/C (dose: 33.0 mg/kg/injection, schedule: Q01DX005 (ip), vehicle: Klucel (hydroxypropylcellulose) (HPC)): 106 % of control | T/C (dose: 66.0 mg/kg/injection, schedule: Q01DX005 (ip), vehicle: Klucel (hydroxypropylcellulose) (HPC)): 92 % of control

CCCCNC(C)[C@]1(O)Cc2c(O)c3c(c(O)c2[C@@H](OC2CC(N)C(O)C(C)O2)C1)C(=O)c1c(OC)cccc1C3=O (stereo not given in full)
T/C (dose: 1.25 mg/kg/injection, schedule: Q01DX009 (ip), vehicle: water): 154 % of control | T/C [1]: 152 % of control and 170 % of control | T/C [2]: 176 % of control and 190 % of control | T/C [3]: 99 % of control

Cc1cccc(C)c1OC(=S)SSC(=S)Oc1c(C)cccc1C
T/C (dose: 100.0 mg/kg/injection, schedule: Q01DX001 (ip), vehicle: Klucel (hydroxypropylcellulose) (HPC)): 94 % of control | T/C (dose: 200.0 mg/kg/injection, schedule: Q01DX001 (ip), vehicle: Klucel (hydroxypropylcellulose) (HPC)): 87 % of control

CC1(C)N=C(N)N=C(N)N1c1cccc(C(=O)O)c1
T/C (dose: 25.0 mg/kg/injection, schedule: Q01DX005 (ip), vehicle: Klucel (hydroxypropylcellulose) (HPC)): 117 % of control | T/C [9]: 100 % of control | T/C [10]: 107 % of control

CC(=S)NC(=O)NC(=O)c1ccc(C)cc1
T/C (dose: 100.0 mg/kg/injection, schedule: Q01DX001 (ip), vehicle: saline): 102 % of control and 104 % of control | T/C (dose: 200.0 mg/kg/injection, schedule: Q01DX001 (ip), vehicle: saline): 112 % of control and 96 % of control | T/C (dose: 400.0 mg/kg/injection, schedule: Q01DX001 (ip), vehicle: saline): 112 % of control and 97 % of control

CCCCC1CCC(=O)NC1=O (stereo not given)
T/C (dose: 60.0 mg/kg/injection, schedule: Q01DX005 (ip), vehicle: saline with Tween-80): 107 % of control | T/C (dose: 120.0 mg/kg/injection, schedule: Q01DX005 (ip), vehicle: saline with Tween-80): 103 % of control | T/C (dose: 240.0 mg/kg/injection, schedule: Q01DX005 (ip), vehicle: saline with Tween-80): 107 % of control

CCc1cccc(NC(=O)NNC(=O)c2ccncc2)c1
T/C [6]: 96 % of control | T/C [7]: 100 % of control

CCCCCCCCCCCCNc1ccc(Cl)cc1
T/C [6]: 117 % of control and 123 % of control | T/C [7]: 103 % of control and 113 % of control | T/C [8]: 117 % of control

CCCCCC(CC(=O)O)C(N)C(=O)O (stereo not given)
T/C [6]: 104 % of control | T/C [7]: 103 % of control | T/C [8]: 99 % of control
